Results from US20240398783A1, “Compounds and Pharmaceutical Compositions Comprising Inhibitors of Amyloid Peptide Interactions with Glycosaminoglycans, Methods of Treatment and Use Thereof” (Gismo Therapeutics, Inc., priority 2021, published 2024).
Where a name gives a salt, the structure may show the parent alone.

Each compound was assayed against TDP-43 binding to heparin (HS-GAG) (Homo sapiens, UniProt Q13148) (assay: Inhibition of TDP-43 binding to immobilized heparin-BSA (ELISA)). Conditions: TDP43/Heparin Activity (IC-50), TDP-43, heparin-BSA.
Parameters: species or system porcine
Description: Porcine intestinal mucosa heparin conjugated to Bovine Serum Albumin (Heparin-BSA) was prepared as described (Najjam, S. et al. 1997, Cytokine 12, 1013-1022). Heparin is a sulfated HS-GAG and is commonly used as a HS-GAG in biochemical and binding assays (Lindahl, U. and Kjellen, L. (2013) ibid). Heparin-BSA at 0.01 mg/ml in Phosphate Buffered Saline (PBS; pH 7.4) was added to a 96 well polystyrene ELISA plate (NUNC Cat. No. 449824; 100 μl per well) and incubated Over Night (ON) at 4 degrees Celsius. For negative controls, ELISA plates were coated with BSA instead of Heparin-BSA, using the same procedure. Following the incubation, the plate was washed consecutively, by immersion, with de-ionized water and PBS (pH 7.4). The ELISA plate was then blocked with nonfat milk (2%, 200 μl per well) for 2 hours at Room Temperature (RT) with gentle shaking. Following blocking, the plate was washed with de-ionized water then PBS (pH 7.4). GBAPs were dissolved and diluted in PBS (pH 6.5, supplemented with 0.1% BSA) at desired concentrations, added to the ELISA plates containing immobilized Heparin-BSA (100 μl per well) and incubated for 2 hours at RT with gentle shaking. Following incubation, the plate was washed with de-ionized water and three times with PBS (pH 6.5) plus Tween. Bound GBAP was detected by a monoclonal antibody specific for that GBAP, followed by incubation with secondary antibody conjugated to horseradish peroxidase (HRP). Antibody was diluted in PBS (pH 6.5 supplemented with 1% BSA). Following each incubation with antibody, the plate was washed with de-ionized water and three times with PBS (pH 6.5) wash buffer containing 0.1% Tween. The peroxidase substrate chromogen, TMB (Dako Cat. No. S1599) was added (100 μl per well) to the ELISA plate and incubated at room temperature. After 5 minutes ELISA Stop Solution (hydrochloric acid 1N, sulfuric acid 3N) was added (100 μl per well) to stop the peroxidase catalyzed colorimetric reaction. The Optical Density of the samples was measured at 450 nm using an ELISA plate reader (BioTek Synergy H1). Following color development, the % inhibition compared to control (BSA-coated plates) was determined. IC-50s were calculated using GraphPad Prism software.
The assay was performed as described in Example 43, with the following modifications.
Following to coating the plates with Heparin-BSA, plates were washed as described. The compounds were dissolved in DMSO at 10 mM final concentration and further diluted prior to assay. DMSO concentration in the screening well was up to 2%. Individual compounds were co-incubated with TDP-43 on plates containing immobilized heparin. TDP43 from R&D System (Cat. No. AP-190) was quickly frozen and kept in aliquots at −80 degrees Celsius. TDP-43 dissolved in PBS (pH 6.5, supplemented with BSA, 0.1%) was added to the ELISA plate (100 μl per well) and incubated for 2 hours at RT with gentle shaking. Following the incubation, the plate was washed with de-ionized water and three times with PBS (pH 6.5) plus Tween. Bound TDP-43 was detected by Anti-TDP43 Monoclonal Antibody (R&D System Cat. No. MAB7778), followed by secondary anti-IgG antibody conjugated to HRP (R&D System, Cat. No. HAF007). Following to color development with TMB, as described in Example 43, the Optical Density of the samples was measured at 450 nm using an ELISA plate reader. Following color development, the % inhibition compared to control (no compound, DMSO control) for every compound was determined.
As described in Example 43, Heparin in the form of Heparin-BSA conjugate is used as a source of HS-GAG. For each compound IC-50 value in TDP-43—heparin-BSA binding assay is shown in μM (micromolar). In some cases IC-50 was not measured and % inhibition at 30 μM compound concentration is shown instead. […] All assays were done on 96-well plates in duplicates and experiments were repeated at least twice. […]

TDP-43 binding to heparin (HS-GAG), sequence (Q13148 whole entry): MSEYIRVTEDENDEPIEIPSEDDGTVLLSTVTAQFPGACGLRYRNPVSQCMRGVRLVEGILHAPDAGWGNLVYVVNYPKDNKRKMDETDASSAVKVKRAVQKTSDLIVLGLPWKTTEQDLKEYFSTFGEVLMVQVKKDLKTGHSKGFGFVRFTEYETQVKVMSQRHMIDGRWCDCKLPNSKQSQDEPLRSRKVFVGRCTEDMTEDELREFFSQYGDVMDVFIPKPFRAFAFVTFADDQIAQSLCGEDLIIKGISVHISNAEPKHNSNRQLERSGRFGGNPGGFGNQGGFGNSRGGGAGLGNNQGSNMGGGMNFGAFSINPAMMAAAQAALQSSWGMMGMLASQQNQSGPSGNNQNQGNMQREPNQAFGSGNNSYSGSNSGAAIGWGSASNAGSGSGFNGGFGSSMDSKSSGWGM

Q: For `Clc1ccc2c(N/N=C/c3ccc(-n4cccn4)cc3)ccnc2c1` [Compound 3, (E)-4-((E)-(4-(1H-pyrazol-1-yl)benzylidene)hydrazono)-7-chloro-1,4-dihydroquinoline], which IC50 is on record?
A: 8.1 µM

Q: Which IC50 does the source give for `Cc1ncn(-c2ncc(Nc3ncnc4cc(Cl)ccc34)cc2O)c1C` [Compound 40, 5-((7-chloroquinazolin-4-yl)amino)-2-(4,5-dimethyl-1H-imidazol-1-yl)pyridin-3-ol phosphoric acid salt] here?
A: 7.42 µM

Q: For `Clc1ccc2c(Nc3ccc(-n4cncn4)nc3)ccnc2c1` [Compound 44, N-(6-(1H-1,2,4-triazol-1-yl)pyridin-3-yl)-7-chloroquinolin-4-amine], which IC50 is on record?
A: 6.54 µM

Q: With `Clc1ccc2c(N/N=C/c3ccc(-n4ccnc4)cc3)ccnc2c1` [Compound 38, 4-(2-(4-(1H-imidazol-1-yl)benzylidene)hydrazineyl)-7-chloroquinoline dihydrochloride] as the compound, how does the IC50 read?
A: 5.73 µM

Q: With `CC(=NNc1ccnc2cc(Cl)ccc12)c1ccc(-n2cnc(C)c2C)nc1` [Compound 22, 7-chloro-4-(2-(1-(6-(4,5-dimethyl-1H-imidazol-1-yl)pyridin-3-yl)ethylidene)hydrazineyl)quinoline] as the compound, how does the IC50 read?
A: 9.02 µM

Q: Which IC50 does the source give for `Cc1ncn(-c2ccc(Nc3ncnc4cc(Cl)ccc34)cn2)c1C` [Compound 25, 7-chloro-N-(6-(4,5-dimethyl-1H-imidazol-1-yl)pyridin-3-yl)quinazolin-4-amine] here?
A: 2.45 µM

Q: How did the IC50 turn out when `Clc1ccc2c(N/N=C/c3ccc(-n4ccnc4)nc3)ccnc2c1` [Compound 14, (E)-4-(2-((6-(1H-imidazol-1-yl)pyridin-3-yl)methylene)hydrazineyl)-7-chloroquinoline hydrochloride] was run?
A: 4.32 µM

Q: For `Fc1cc(/C=N/Nc2ccnc3cc(Cl)ccc23)ccc1-n1ccnc1` [Compound 35, (E)-7-chloro-4-(2-(3-fluoro-4-(1H-imidazol-1-yl)benzylidene)hydrazineyl)quinoline hydrochloride], which IC50 is on record?
A: 15.6 µM

Q: How did the IC50 turn out when `Cc1ncn(-c2ccc(/C=N/Nc3ccnc4cc(Cl)ccc34)cc2)c1C` [Compound 2, (E)-7-chloro-4-((E)-(4-(4,5-dimethyl-1H-imidazol-1-yl)benzylidene)hydrazono)-1,4-dihydroquinoline] was run?
A: 61.7 µM

Q: `Clc1ccc2c(Nc3ccc(-n4cncn4)nc3)ncnc2c1` [Compound 34, N-(6-(1H-1,2,4-triazol-1-yl)pyridin-3-yl)-7-chloroquinazolin-4-amine phosphoric acid salt] was tested. Which IC50 did it give?
A: 5.23 µM

Q: For `C/C(=N\Nc1ncnc2cc(Cl)ccc12)c1ccc(-n2cnc(C)c2C)nc1` [Compound 16, 7-chloro-4-(2-(1-(6-(4,5-dimethyl-1H-imidazol-1-yl)pyridin-3-yl)ethylidene)hydrazineyl)quinazoline phosphate], which IC50 is on record?
A: 2.16 µM

Q: For `C/C(=N\Nc1ncnc2cc(Cl)ccc12)c1ccc(-n2cc[n+](C)c2)nc1` [Compound 17, (E)-1-(5-(1-(2-(7-chloroquinazolin-4-yl)hydrazineylidene)ethyl)pyridin-2-yl)-3-methyl-1H-imidazol-3-ium iodide phosphoric acid salt], which IC50 is on record?
A: 33.6 µM

Q: How did the IC50 turn out when `C/C(=N\Nc1ncnc2ccccc12)c1ccc(-n2cc(C)nc2C)nc1` [Compound 19, (E)-4-(2-(1-(6-(2,4-dimethyl-1H-imidazol-1-yl)pyridin-3-yl)ethylidene)hydrazineyl)quinazoline] was run?
A: 36.8 µM

Q: For `Cc1ncn(-c2ccc(/C=N\Nc3ncnc4cc(Cl)ccc34)cn2)c1C` [Compound 15, 7-chloro-4-(2-((6-(4,5-dimethyl-1H-imidazol-1-yl)pyridin-3-yl)methylene)hydrazineyl)quinazoline hydrochloride], which IC50 is on record?
A: 3.06 µM

Same assay, conditions: TDP-43, heparin-BSA; read-out: TDP43/Heparin Activity (IC-50)

Q: For `Cc1cc(-n2ccnc2)ccc1/C=N/Nc1ccnc2cc(Cl)ccc12` [Compound 1, (E)-4-((E)-(4-(1H-imidazol-1-yl)-2-methylbenzylidene)hydrazono)-7-chloro-1,4-dihydroquinoline], which IC50 is on record?
A: 2.92 µM

Q: How did the IC50 turn out when `C/C(=N\Nc1ncnc2cc(F)ccc12)c1ccc(-n2cnc(C)c2C)nc1` [Compound 21, (E)-4-(2-(1-(6-(4,5-dimethyl-1H-imidazol-1-yl)pyridin-3-yl)ethylidene)hydrazineyl)-7-fluoroquinazoline] was run?
A: 4.6 µM

Q: How did the IC50 turn out when `Clc1ccc2c(Nc3ccc(-n4ccnc4)nc3)ncnc2c1` [Compound 41, N-(6-(1H-imidazol-1-yl)pyridin-3-yl)-7-chloroquinazolin-4-amine] was run?
A: 4.25 µM

Q: For `C/C(=N\Nc1nncc2cc(Cl)ccc12)c1ccc(-n2cc(C)nc2C)nc1` [Compound 24, (E)-6-chloro-1-(2-(1-(6-(2,4-dimethyl-1H-imidazol-1-yl)pyridin-3-yl)ethylidene)hydrazineyl)phthalazine], which IC50 is on record?
A: 0.89 µM

Q: With `CC(=NNc1ncnc2cc(Cl)ccc12)c1ccnc(-n2cnc(C)c2C)c1` [Compound 28, 7-chloro-4-(2-(1-(2-(4,5-dimethyl-1H-imidazol-1-yl)pyridin-4-yl)ethylidene)hydrazineyl)quinazoline] as the compound, how does the IC50 read?
A: 5.73 µM

Same assay, conditions: read-out: TDP43/Heparin Activity (% inhibition class)

Q: With `COc1cc(Nc2nncc3cc(Cl)ccc23)cnc1-n1cnc(C)c1C` [Compound 31, 6-chloro-N-(6-(4,5-dimethyl-1H-imidazol-1-yl)-5-methoxypyridin-3-yl)phthalazin-1-amine phosphoric acid salt] as the compound, how does the inhibition at 30 µM read?
A: < 30%

Q: With `Fc1ccc2c(N/N=C/c3ccc(CN4CCOCC4)cc3)ccnc2c1` [Compound 6, (E)-4-(4-((2-(7-fluoroquinolin-4-yl)hydrazono)methyl)benzyl)morpholine] as the compound, how does the inhibition at 30 µM read?
A: < 30%

Q: With `CN(C)Cc1cc(Nc2ccnc3cc(Cl)ccc23)ccn1` [Compound 45, 7-chloro-N-(2-((dimethylamino)methyl)pyridin-4-yl)quinolin-4-amine] as the compound, how does the inhibition at 30 µM read?
A: < 30%

Q: With `C[n+]1ccn(-c2ccc(Nc3ncnc4cc(Cl)ccc34)cn2)c1` [Compound 43, 1-(5-((7-chloroquinazolin-4-yl)amino)pyridin-2-yl)-3-methyl-1H-imidazol-3-ium iodide phosphoric acid salt] as the compound, how does the inhibition at 30 µM read?
A: < 30%

Q: With `C/C(=N\Nc1ncnc2cc(Cl)ccc12)c1cccc(CN(C)C)c1` [Compound 29, 1-(3-(1-(2-(7-chloroquinazolin-4-yl)hydrazineylidene)ethyl)phenyl)—N,N-dimethylmethanamine] as the compound, how does the inhibition at 30 µM read?
A: < 30%

Q: Which inhibition at 30 µM does the source give for `COc1cc2nccc(NN=Cc3ccc(-n4ccnc4)c(C)c3)c2cc1OC` [Compound 11, 4-(2-(4-(1H-imidazol-1-yl)-3-methylbenzylidene)hydrazineyl)-6,7-dimethoxyquinoline hydrochloride] here?
A: < 30%

Q: `C[N+](C)(C)Cc1ccc(/C=N\Nc2ccnc3ccc(Cl)cc23)cc1` [Compound 4, (Z)-1-(4-((2-(6-chloroquinolin-4-yl)hydrazineylidene)methyl)phenyl)—N,N,N-trimethylmethanaminium iodide] was tested. Which inhibition at 30 µM did it give?
A: < 30%

Q: For `COc1cc2nccc(N/N=C/c3ccc(-n4ccnc4)c(OC)c3)c2cc1OC` [Compound 13, (E)-4-(2-(4-(1H-imidazol-1-yl)-3-methoxybenzylidene)hydrazineyl)-6,7-dimethoxyquinoline phosphate], which inhibition at 30 µM is on record?
A: < 30%

Q: How did the inhibition at 30 µM turn out when `CCN1CCN(c2ccc(Nc3ccnc4cc5ccccc5cc34)cc2)CC1` [Compound 39, N-(4-(4-ethylpiperazin-1-yl)phenyl)benzo[g]quinolin-4-amine] was run?
A: > 30%

Q: `CN1CCN(Cc2ccc(/C=N/Nc3ccnc4cc(Cl)ccc34)cc2)CC1` [Compound 7, (E)-7-chloro-4-(2-(4-((4-methylpiperazin-1-yl)methyl)benzylidene)hydrazinyl)quinolone] was tested. Which inhibition at 30 µM did it give?
A: < 30%
